How the values were obtained:
[1] = system: Arabidopsis thaliana, ecotype Columbia (Col-0) and attps7 knockout mutants; assay: Appearance of flower buds / flowering time after spraying T6P signalling precursor; format: in vivo; set-up: key to flower bud had appeared (individual plant N): X: shown as crosses in highlighted boxes; details: for flower bud had appeared (individual plant N): 1 mM spray, day 5 after spraying
Procedure: In both cases it is possible to advance the development of the flowering inflorescence by several centimetres and advance flowering time by up to a week.
(§1) Seeds of Arabidopsis thaliana, ecotype Columbia (Col-0) and attps7 knockout mutants were surface-sterilized with 70% of ethanol for 2 min and 75% household bleach for 7 min, and grown on nutrient agar media (0.5×Murashige and Skoog plus Gamborg's vitamins (Sigma). 0.5% Sucrose and 0.7% Agar) in Petri plates. Seeds on the Petri plates were placed in a growth chamber (22° C., 150 μmol m^−2 s^−1, 16-h day). Seven days after plating, seedlings were transferred to pots of soil containing Rothamsted standard compost mix and full nutrition (one seedling per pot). Forty plants per A. thaliana type (n=40 Col-0, n=40 TPS7_3, n=40 TPS7_4.15) were grown at 22CC, 250 μmol m^−2 s^−1 irradiance, 16-h day. Eight days after sowing (DAS) plants were sprayed with 0.5 ml 1 mM oNPE-T6P (ortho-nitrphenyl)ethyl trehalose 6-phosphate dissolved in distilled water with the addition of 0.1% of Tween20 during the middle of the mid-photoperiod. Twenty-four hours after spraying (9 DAS), plants sprayed with 1 mM oNPE-T6P were exposed to 600 μmol m^−2 s^−1 irradiance for 1 h to release T6P from oNPE-T6P. Spraying was repeated at 12 and 16 DAS.
First, the appearance of the flower bud was quicker in plants sprayed with oNPE-T6P than with water.

[2] = system: Arabidopsis thaliana, ecotype Columbia (Col-0) and attps7 knockout mutants; assay: Height of the flowering inflorescence at 26 DAS after spraying T6P signalling precursor; format: in vivo; details: versus water control
Procedure: Right hand bars in each panel represent plants treated with 1 mM oNPE. Left hand bars in each panel represent plants treated with water (controls). […] This reflects the advancement of flowering by oNPE.
as §1
Height of the flowering inflorescence was then measured at 26 DAS. […]

## CC(OP(=O)(OC[C@H]1O[C@H](O[C@H]2O[C@H](CO)[C@@H](O)[C@H](O)[C@H]2O)[C@H](O)[C@@H](O)[C@@H]1O)OC(C)c1ccccc1[N+](=O)[O-])c1ccccc1[N+](=O)[O-] (stereo partly drawn) [oNPE-T6P, 6-O-bis[1-(2-nitrophenyl)-ethoxyphosphoryl]-D-trehalose]
[1]; Col-0
  flower bud had appeared (individual plant N): X
[1]; TPS7_3 mutant
  flower bud had appeared (individual plant N): X
[1]; TPS7_4.15 mutant
  flower bud had appeared (individual plant N): X
[1]; plants sprayed with 1 mM, versus water
  appearance of the flower bud compared with water: quicker
[2]; Col-0, 1 mM
  height of the flowering inflorescence: taller inflorescences
[2]; tps7, 1 mM
  height of the flowering inflorescence: taller inflorescences

From patent US20200178534A1, “INDUCTION OF FLORAL DEVELOPMENT IN PLANTS” (priority 2016, published 2020)
